Consider four compounds from patent US8470828B2, “Anellated pyridine compounds” (Hoffmann-La Roche Inc., priority 2010, dated 2013).

One series concerns the target human D3 receptor (Homo sapiens, UniProt P35462). Kind of series: Radioligand binding to cloned human D3 receptor expressed in HEK-293 EBNA cells ([3H]-spiperone).
The target of another series is T1, human D2 receptor (Homo sapiens, UniProt P14416).
T1 construct: expressed in transfected cells; host or cells: HEK293 EBNA cells, transient transfection; membrane preparation
Kind of series: Radioligand binding to cloned human D2 receptor expressed in HEK-293 EBNA cells ([3H]-spiperone). The following applies: HEK293 EBNA cell membranes, approximately 0.7 nM [3H]-spiperone, 1 h at RT.

In the next series the target is human 5-HT2A receptor (Homo sapiens, UniProt P28223). Description: Radioligand binding to cloned human 5-HT2A receptor expressed in HEK-293 EBNA cells ([3H]-ketanserin).
Sequence of human 5-HT2A receptor (P28223 whole entry): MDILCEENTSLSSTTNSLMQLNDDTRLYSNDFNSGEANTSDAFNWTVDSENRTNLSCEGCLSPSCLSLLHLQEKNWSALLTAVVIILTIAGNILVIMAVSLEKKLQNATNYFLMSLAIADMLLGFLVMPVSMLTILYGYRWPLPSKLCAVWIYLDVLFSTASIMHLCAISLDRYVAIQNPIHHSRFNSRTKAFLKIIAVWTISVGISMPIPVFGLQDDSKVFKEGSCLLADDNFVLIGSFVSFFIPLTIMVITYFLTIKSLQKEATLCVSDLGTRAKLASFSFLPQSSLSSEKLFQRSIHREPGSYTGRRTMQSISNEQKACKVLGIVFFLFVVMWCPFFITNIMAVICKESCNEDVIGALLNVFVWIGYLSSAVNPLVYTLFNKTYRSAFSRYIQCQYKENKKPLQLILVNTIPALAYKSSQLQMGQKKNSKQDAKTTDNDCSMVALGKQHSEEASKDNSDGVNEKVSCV

T1 sequence (P14416 whole entry): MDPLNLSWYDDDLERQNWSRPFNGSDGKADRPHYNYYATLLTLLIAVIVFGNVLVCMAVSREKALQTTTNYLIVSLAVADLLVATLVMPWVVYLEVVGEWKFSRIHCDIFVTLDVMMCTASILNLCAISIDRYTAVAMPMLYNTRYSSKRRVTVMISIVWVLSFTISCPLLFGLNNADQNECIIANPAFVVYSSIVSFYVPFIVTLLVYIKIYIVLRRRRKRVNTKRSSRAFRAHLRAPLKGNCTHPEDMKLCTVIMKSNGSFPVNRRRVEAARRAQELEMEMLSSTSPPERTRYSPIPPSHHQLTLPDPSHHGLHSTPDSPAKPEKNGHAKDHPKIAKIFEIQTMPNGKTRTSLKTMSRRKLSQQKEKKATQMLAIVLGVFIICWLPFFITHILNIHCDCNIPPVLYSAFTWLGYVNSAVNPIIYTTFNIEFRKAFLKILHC
Sequence of human D3 receptor (P35462 whole entry): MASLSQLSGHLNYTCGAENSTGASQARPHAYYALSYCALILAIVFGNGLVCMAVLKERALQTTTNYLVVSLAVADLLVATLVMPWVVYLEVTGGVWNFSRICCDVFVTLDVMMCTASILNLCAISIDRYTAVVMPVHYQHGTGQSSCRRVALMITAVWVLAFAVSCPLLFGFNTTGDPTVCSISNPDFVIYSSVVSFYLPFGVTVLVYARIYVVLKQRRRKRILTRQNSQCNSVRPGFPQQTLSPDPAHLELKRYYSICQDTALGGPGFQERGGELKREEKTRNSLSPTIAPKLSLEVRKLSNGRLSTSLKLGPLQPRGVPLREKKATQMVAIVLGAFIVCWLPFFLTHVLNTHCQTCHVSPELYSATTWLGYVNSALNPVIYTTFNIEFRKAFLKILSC
Experimental for human 5-HT2A receptor: HEK293 EBNA cells were transiently transfected with expression plasmids encoding for the human D2 or D3 or for the human 5-HT2A receptor, respectively. The cells were harvested 48 h post-transfection, washed three times with cold PBS and stored at −80° C. prior to use. The pellet was suspended in cold 50 mM Tris-HCl buffer comprising 10 mM EDTA (pH 7.4) and was homogenized with a Polytron (Kinematica A G, Basel, Switzerland) for 20-30 sec at 12.000 rpm. After centrifugation at 48.000×g for 30 min at 4° C., the pellet was resuspended in cold 10 mM Tris-HCl buffer comprising 0.1 mM EDTA (pH 7.4), homogenized, and centrifuged as above. This pellet was further resuspended in a smaller volume of ice cold 10 mM Tris-HCl buffer comprising 0.1 mM EDTA (pH 7.4) and homogenized with a Polytron for 20-30 sec at 12.000 rpm. The protein content of this homogenate was determined with the Bio-Rad (Bradford) Protein Assay (Biorad Laboratories GmbH, München, Germany) according to the instructions of the manufacturer using gamma globulin as the standard. This homogenate was stored at −80° C. in aliquots and thawed immediately prior to use.
Aliquots of membrane preparations were thawed at RT, resupended in assay buffer (D2, D3: 50 mM Tris-HCl, 120 mM NaCl, 5 mM MgCl2, 1 mM EDTA, 5 mM KCl, 1.5 mM CaCl2, pH=7.4; 5-HT2A: 50 mM Tris-HCl, 10 mM MgCl2, 1 mM EGTA, pH=7.4), homogenized with a Polytron for 20-30 sec at 12.000 rpm and adjusted to a final concentration of approximately 7.5 μg protein/well (D2, D3) and 15 μg protein/well (5-HT2A), respectively.
The binding affinity (Ki) of the compounds was determined using radioligand binding. Membranes were incubated in a total volume of 200 μl with a fixed concentration of radioligand (final concentration approximately 0.7 nM [^3H]-spiperone for D2, 0.5 nM [^3H]-spiperone for D3, and 1.1 nM [^3H]-ketanserin for 5-HT2A) and ten concentrations of test compound in ranging between 10 μM-0.1 nM for 1 h at RT. At the end of the incubation, the reaction mixtures were filtered on to unifilter 96-well white microplates with bonded GF/C filters (Packard BioScience, Zürich, Switzerland; preincubated for 1 h in 0.1% polyethylenimine (PEI) in assay buffer) with a Filtermate 196 harvester (Packard BioScience) and washed 3 times with cold assay buffer. The nonspecific binding was determined with equally composed reaction mixtures in the presence of 10 μM unlabelled spiperone. Per well 45 μl of Microscint 40 (Perkin Elmer, Schwerzenbach, Switzerland) was added, plates for sealed, shaken for 20 min and counted for 3 min on a Topcount Microplate Scintillation Counter (Can berra Packard S A, Zürich, Switzerland) with quenching correction.
The CPM value for each duplicate of a concentration of competing compound was averaged (y1), then the % specific binding was calculated according to the equation (((y1−non-specific)/(total binding−non-specific))×100). Graphs were plotted with the % specific binding using XLfit, a curve fitting program that iteratively plots the data using Levenberg-Marquardt algorithm. The single site competition analysis equation used was y=A+((B−A)/(1+((x/C)D))), where y is the % specific binding, A is the minimum y, B is the maximum y, C is the IC50, x is the log 10 of the concentration of the competing compound and D is the slope of the curve (the Hill Coefficient). […] The affinity constant (Ki) was calculated using the Cheng-Prusoff equation Ki=(IC50/1+([L]/Kd), where [L] is the concentration of radioligand and Kd is the dissociation constant of the radioligand at the receptor as determined by the saturation isotherm.

By Ki is commonly meant the equilibrium dissociation constant of an inhibitor or competing ligand from its target. A higher Ki goes with a looser hold on the target. A word on the melting point: it is the temperature of the solid-liquid transition. Turning to `O=S(=O)(N[C@H]1CC[C@H](CCN2CCN(c3nccc4c3OCC4)CC2)CC1)c1ccccc1` [Example 99, trans-N-(4-{2-[4-(2,3-Dihydro-furo[2,3-c]pyridin-7-yl)-piperazin-1-yl]-ethyl}-cyclohexyl)-benzenesulfonamide], the melting point turned out to be 122.5 °C. The compound further came in with a Ki at human D3 receptor of 6 nM. In addition, the Ki on human D2 receptor was 233 nM. The same compound had an inhibition constant (Ki) on human 5-HT2A receptor of 151 nM.
Taken in the same sequence, the figures for `CO[C@H](C)C(=O)N[C@H]1CC[C@H](CCN2CCN(c3nccc4c3OCC4)CC2)CC1` [Example 100, trans-(R)—N-(4-{2-[4-(2,3-Dihydro-furo[2,3-c]pyridin-7-yl)-piperazin-1-yl]-ethyl}-cyclohexyl)-2-methoxy-propionamide] were 170.5 °C, 30.9 nM, 714 nM and 22.9 nM.
`O=C(CC1(O)CCC1)N[C@H]1CC[C@H](CCN2CCN(c3nccc4c3OCC4)CC2)CC1` [Example 102, trans-N-(4-{2-[4-(2,3-Dihydro-furo[2,3-c]pyridin-7-yl)-piperazin-1-yl]-ethyl}-cyclohexyl)-2-(1-hydroxy-cyclobutyl)-acetamide] had a melting point of 155 °C. For the same compound, the affinity at human D3 receptor corresponds to a Ki of 11.8 nM. The Ki on human D2 receptor came to 478 nM. The affinity on human 5-HT2A receptor, expressed as Ki, was 50.6 nM.
On the same counts, the results for `CC[C@@H](O)CC(=O)N[C@H]1CC[C@H](CCN2CCN(c3nccc4c3OCC4)CC2)CC1` [Example 103, (R)-3-Hydroxy-pentanoic acid trans-(4-{2-[4-(2,3-dihydro-furo[2,3-c]pyridin-7-yl)-piperazin-1-yl]-ethyl}-cyclohexyl)-amide] are 146 °C, 20.1 nM, 874 nM and 113 nM.
